One assay relates to V1/V3 DKO MEFs. In words: Mitochondria Ca2+ uptake assay in VDAC1/VDAC3 double knockout MEFs. The format is cell-based. As to the method: V1/V3 DKO MEFs were cultured as previously described (Roy et al., 2009a, EMBO Rep 10, 1341-1347). Efsevin-treated (15 μM for 30 min) or mock-treated MEFs were used for measurements of [Ca^2+]c in suspensions of permeabilized cells or imaging of [Ca^2+]m simultaneously with [Ca^2+]c in intact single cells. Permeabilization of the plasma membrane was performed by digitonin ([…]). Changes in [Ca^2+] in the cytoplasmic buffer upon IP3 (7.5 μM) addition in the presence or absence of ruthenium red (3 μM) was measured by fura2 in a fluorometer (Csordas et al., 2006, J Cell Biol 174, 915-921; Roy et al., 2009b, Mol Cell 33, 377-388). To avoid endoplasmic reticulum Ca^2+ uptake 2 μM thapsigargin was added before IP3. For imaging of [Ca^2+]m and [Ca^2+]c, MEFs were co-transfected with plasmids encoding polycistronic zebrafish VDAC2 with mCherry and mitochondria-targeted inverse pericam for 40 hours. Cells were sorted to enrich the transfected cells and attached to glass coverslips. In the final 10 min, of the efsevin or mock-treatment, the cells were also loaded with fura2AM (2.5μ[…]) and subsequently transferred to the microscope stage. Stimulation with 1 μM ATP was carried out in a norminally Ca^2+ free buffer. […]

The next assay relates to VDAC2. In words: Affinity bead pull down from zebrafish embryo lysate with mass spectrometry. The settings on record: zebrafish embryonic lysate, affinity agarose beads. The format is binding. The protocol: For pull down assays mono-N-Boc protected 2,2′-(ethylenedioxy)bis(ethylamine) was attached to the carboxylic ester of efsevin and its derivatives through the amide bond. After removal of the Boc group using TFA, the primary amine was coupled to the carboxylic acid of Affi-Gel 10 Gel (Biorad). Two-day-old zebrafish embryos were deyolked by centrifugation before being lysed with Rubinfeld's lysis buffer (Rubinfeld et al., 1993, Science 262, 1731-1734). The lysate was precleaned by incubation with Affi-Gel 10 Gel to eliminate non-specific binding. Precleaned lysate was incubated with affinity beads overnight. Proteins were eluted from the affinity beads and separated on SDS-PAGE. Protein bands of interest were excised. Gel plugs were dehydrated in acetonitrile (ACN) and dried completely in a Speedvac. Samples were reduced and alkylated with 10 mM dithiotreitol and 10 mM TCEP solution in 50 mM NH4HCO3 (30 min at 56° C.) and 100 mM iodoacetamide (45 min in dark), respectively. Gel plugs were washed with 50 mM NH4HCO3, dehydrated with ACN, and dried down in a Speedvac. Gel pieces were then swollen in digestion buffer containing 50 mM NH4HCO3, and 20.0 ng/μL of chymotrypsin (25° C., overnight). Peptides were extracted with 0.1% TFA in 50% ACN solution, dried down and resuspended in LC buffer A (0.1% formic acid, 2% ACN).
Extracted peptides were analyzed by nano-flow LC/MS/MS on a Thermo Orbitrap with dedicated Eksigent nanopump using a reversed phase column (New Objective). The flow rate was 200 nL/min for separation: mobile phase A contained 0.1% formic acid, 2% ACN in water, and mobile phase B contained 0.1% formic acid, 20% water in ACN. The gradient used for analyses was linear from 5% B to 50% B over 60 min, then to 95% B over 15 min, and finally keeping constant 95% B for 10 min. Spectra were acquired in data-dependent mode with dynamic exclusion where the instrument selects the top six most abundant ions in the parent spectra for fragmentation. […]

Another assay concerns NCX1hMO injected embryos. In words: Restoration of coordinated cardiac contractions in NCX1h morpholino embryos. The format is in vivo, zebrafish. The settings on record: for embryos with coordinated contractions: VDAC2^zfn/zfn. The protocol: VDAC2 mRNA and morpholino antisense oligos (5′-[…]-3′) (Genetools) (SEQ ID NO: 9) were injected into one-cell stage embryos collected from crosses of tre^tc318 heterozygotes. Cardiac performance was analyzed by visual inspection on 1 dpf. The tre mutant embryos were identified either by observing the fibrillation phenotype at 2-3 dpf or by genotyping as previously described (Langenbacher et al., 2005).
Chemicals from a synthetic library (Castellano et al., 2007, J Am Chem Soc 129, 5843-5845; Choi et al., 2011, Development 138, 1173-1181; Cruz et al., 2011, Proc Natl Acad Sci USA 108, 6769-6774) and from Biomol International LP were screened for their ability to partially or completely restore persistent heartbeat in tre embryos. 12 embryos collected from crosses of tre^tc318 heterozygotes were raised in the presence of individual compounds at a concentration of 10 μM from 4 hpf (Choi et al., 2011). Cardiac function was analyzed by visual inspection at 1 and 2 dpf. The hearts of tre^tc318 embryos manifest a chaotic movement resembling cardiac fibrillation with intermittent contractions in rare occasion (Ebert et al., 2005; Langenbacher et al., 2005). Compounds that elicit persistent coordinated cardiac contractions were validated on large number of tre mutant embryos and NCX1h morphants (>500 embryos).

The subject of another assay is HeLa cells. In words: Mitochondria Ca2+ uptake assay in HeLa cells. The format is cell-based. As to conditions: permeabilized cells, 1 μM efsevin, Rhod2. As to the method:
HeLa cells were transfected with zebrafish VDAC2 using Lipofectamine™ 2000 (Invitrogen). 36 hrs after transfection, cells were loaded with 5 μM Rhod2-AM (Invitrogen), a Ca^2+ indicator preferentially localized in mitochondria, for 1 hour at 15° C. followed by a 30 min de-esterification period at 37° C. Subsequently, cells were permeabilized with 100 μM digitonin for 1 min at room temperature. Fluorescence changes in Rhod2 (ex: 544 nm, em: 590 nm) immediately after the addition of Ca^2+ (final free Ca^2+ concentration is calculated to be approximately 10 μM using WEBMAXC at http://web.stanford.edu/˜cpatton/webmaxcS.htm) were monitored in internal buffer (5 mM K-EGTA, 20 mM HEPES, 100 mM K-aspartate, 40 mM KCl, 1 mM MgCl2, 2 mM maleic acid, 2 mM glutamic acid, 5 mM pyruvic acid, 0.5 mM KH2PO4, 5 mM MgATP, pH adjusted to 7.2 with Trizma base) using a FLUOSTAR plate reader (BMG Labtech).

Setting [1] is: efsevin treatment, NCX1MO embryos.

This is an account of results in patent publication US12378193B2, “Anti-arrhythmicity agents” (The Regents of the University of California, priority 2014, dated 2025).

Molecules are shown by their SMILES.

For `CCOC(=O)C1=CCN(S(=O)(=O)c2ccc(C)cc2)C1c1ccccc1` (centres unmarked) [efsevin], the “transfer of Ca2+ released from intracellular stores into mitochondria” value in the assay on V1/V3 DKO MEFs (intact V1/V3 DKO MEFs, stimulation with ATP) is “accelerated the transfer of Ca^2+”. Moreover, the “Ca2+ transferred into mitochondria during IP3-induced Ca2+ release” value in the assay on V1/V3 DKO MEFs (permeabilized V1/V3DKO MEFs, efsevin 15 μM for 30 min, 7.5 μM IP3) was “increased the amount of Ca^2+ transferred into mitochondria”. Moreover, the “pull down of the 32 kD band (VDAC2)” value in the assay with VDAC2 is on record as “pulled down”. Further, in the assay on NCX1hMO injected embryos (setting [1]), the “embryos with coordinated cardiac contractions” value came out at 76.2±8.7% and the “embryos with coordinated contractions” value was determined as 54.1±3.6%. For the same compound, the “embryos with coordinated contractions” value in the assay with NCX1hMO injected embryos (efsevin treatment, VDAC1MO, NCX1MO embryos) stood at 35.7±7.1%. In the assay with NCX1hMO injected embryos (linker-attached compounds), the “restoration of rhythmic contractions in NCX1hMO injected embryos” value was “retained their ability to restore rhythmic contractions”. The “mitochondrial Ca2+ uptake after addition of Ca2+” value in the assay on HeLa cells is “increased mitochondrial Ca^2+ uptake”.
